According to patent US20040029196A1, “Epithelial cell lines from gene knockout mice and methods of use thereof” (priority 2001, published 2004):
Marks after values point to notes of the source that are not given here.

Experiments:
Apc [+/−] 1638NCOL cells [1] = test: Cytostatic growth arrest (cell population doubling); assay type: cell-based, mouse; details: for No. of population doublings: mean ± SD, n = 3
Method: (§1) Differential susceptibility of C57COL (wild type Ape [+/+]), the control cell line, and 1638NCOL (Apc [+/−]) to growth inhibition by mechanistically distinct prototype chemopreventive test compounds was evaluated in a conventional cell survival assay, while the preventive efficacy of the test compounds was evaluated using optimized quantitative flow cytometry-based cell cycle analysis. Optimization of flow cytometry based cell cycle analysis is published (7, 8, 10, 11) and is needed in view of batch-to-batch variations in commercially available fluorescein isothiocyanate-conjugated antibodies.
(§2) Selective susceptibility of Ape [+/−] 1638NCOL cells to a prototype chemopreventive agent sulindac (SUL) was examined by comparing its effect on Ape [+/+] C57COL and Ape [+/−] 1638NCOL cells. The cytostatic growth arrest response, evidenced by a decrease in cell population doubling, was about 2-3 fold higher in Ape [+/−] cells as compared to that of Ape [+/+] cells (Table 3).
The dose response and efficacy studies involved treatment of cell cultures with five log μM concentrations of each compound (0.01, 0.1, 1.0, 10.0 and 100.0 μM). […] The cytostatic effect of treatment with high doses (100 μM) was associated with down regulated cell population doubling, altered aneuploid G0/G1: S+G2/M ratio, and decreased number of anchorage independent colonies (Table 4).
(§3) The cell lines were characterized for expression of epithelium specific proteins (cytokeratins), Apc gene product (full length, as opposed to truncated forms which are differentially reactive to carboxyl and amino terminal Apc antibodies), and cytodifferentiation (MUC1, acid mucopolysaccharide, alkaline phosphatase) using standard assays for immunocytochemical analysis. The growth kinetics were determined based on the time-dependent increase in the number of viable cells relative to the initial seeding density. The cell cycle progression and anchorage-independent growth were determined using fluorescence assisted flow cytometry and colony forming assays, respectively, as previously described (4, 7-11). The expression profile of specific gene products (proteins) involved in the regulation of cell cycle progression, apoptosis, and differentiation was also quantified using recently optimized cellular epifluorescence assays (10, 11).

Apc [+/−] 1638NCOL cells [2] = test: Flow cytometry-based aneuploid cell cycle progression analysis; set-up: species or system mouse; details: for G0/G1:S + G2/M ratio (aneuploid cell cycle progression): mean ± SD, n = 3
Method: Aneuploidy: Fluorescence assisted cell sorting and flow cytometry of cells stained with DNA binding fluorescent dyes. Diploid and aneuploid cells accumulate as distinct peaks on the DNA histograms obtained from flow cytometric analysis.
as §1, §3

Apc [+/−] 1638NCOL cells [3] = test: Dose response in conventional cell survival assay (growth arrest, toxicity); assay type: cell-based, mouse; set-up: key to Toxicity: +: Toxicity, surviving cell population lower than initial seeding density; details: for No effect: 0.01 μM
Method: as §1
The dose response and efficacy studies involved treatment of cell cultures with five log μM concentrations of each compound (0.01, 0.1, 1.0, 10.0 and 100.0 μM).

Apc [+/−] 1638NCOL cells [4] = test: Anchorage-independent growth (soft agar colony formation); assay type: cell-based, mouse; details: 100 μM
Description: Anchorage-independent growth: The ‘soft’ agar growth assay monitors the ability of cells to form non adherant colonies. Single cells suspended in 0.33% agar are overlaid on a basement matrix. These cultures are maintained for about 10-14 days and resulting colonies are counted.
as §3

C57COL (Apc [+/+]) cells = test: Cytostatic growth arrest (cell population doubling), control cell line; assay type: cell-based, mouse
Method: as §1, §2, §3

| Compound | % Change in no. of population doublings versus EtOH control (Apc [+/−] 1638NCOL cells [1]; 1 μM) | No. of population doublings (Apc [+/−] 1638NCOL cells [1]; 1 μM) | % Change in no. of population doublings versus EtOH control (Apc [+/−] 1638NCOL cells [1]; 10 μM) [%] | No. of population doublings (Apc [+/−] 1638NCOL cells [1]; 10 μM) | G0/G1:S + G2/M ratio (aneuploid cell cycle progression) (Apc [+/−] 1638NCOL cells [2]; 1 μM) | Cell cycle phase (Apc [+/−] 1638NCOL cells [2]; 10 μM) | G0/G1:S + G2/M ratio (aneuploid cell cycle progression) (Apc [+/−] 1638NCOL cells [2]; 10 μM) | No effect (Apc [+/−] 1638NCOL cells [3]) | Growth arrest (%) (Apc [+/−] 1638NCOL cells [3]; 1 μM (Table 8)) | Growth arrest (%) (Apc [+/−] 1638NCOL cells [3]; 0.1-10 μM) | % Change in no. of population doublings versus EtOH control (Apc [+/−] 1638NCOL cells [1]; 100 μM) [%] | Cell Population Doubling (Apc [+/−] 1638NCOL cells [1]; 100 μM) | No. of population doublings (Apc [+/−] 1638NCOL cells [1]; 100 μM) | Cell cycle phase (Apc [+/−] 1638NCOL cells [2]; 1 μM) | Aneuploid G0/G1:S + G2/M ratio (Apc [+/−] 1638NCOL cells [2]; 100 μM) | Cell cycle phase (Apc [+/−] 1638NCOL cells [2]; 100 μM) | G0/G1:S + G2/M ratio (aneuploid cell cycle progression) (Apc [+/−] 1638NCOL cells [2]; 100 μM) | Anchorage-independent colonies (Apc [+/−] 1638NCOL cells [4]) | Growth arrest (%) (Apc [+/−] 1638NCOL cells [3]; 100 μM) | Growth arrest (%) (Apc [+/−] 1638NCOL cells [3]; 100 μM (Table 8)) | further results |
| --- | --- | --- | --- | --- | --- | --- | --- | --- | --- | --- | --- | --- | --- | --- | --- | --- | --- | --- | --- | --- | --- |
| NCCCNCCSP(=O)(O)O [AMF, Amifostine] | −17.2% | 8.2 ± 0.2 | −37.4 | 6.2 ± 0.3 | 9.6 ± 0.7 | G1 arrest | 10.9 ± 0.6^c | + (No effect <20% inhibition of surviving cell population) | 25 | 25-40% | – | – | – | – | – | – | – | – | – | – | Growth arrest (%) (Apc [+/−] 1638NCOL cells [3]; 10 μM (Table 8)): 40%; Toxicity (Apc [+/−] 1638NCOL cells [3]; 100 μM): + |
| CC1=C(/C=C/C(C)=C\C=C\C(C)=C\C(=O)O)C(C)(C)CCC1 [Agent 9cisRA, 9cis retinoic acid] | −32.3% | 6.7 ± 0.2 | – | – | 13.8 ± 0.5^c | – | – | + (No effect <20% inhibition of surviving cell population) | 30 | 30% | −53.5 | 4.6 ± 0.1 | 4.6 ± 0.1^c | G1 arrest | 18.5 ± 0.2 | G1 arrest | 22.1 ± 0.6^c | 4.4 ± 1.2 | 60 | 60 | – |
| Cc1c(-c2cnccn2)ssc1=S [OLT, Oltipraz] | +8.1% | 10.7 ± 0.2 | – | – | 1.0 ± 0.2^d | – | – | + (No effect <20% inhibition of surviving cell population) | 2 | 2% | −15.1 | 8.4 ± 0.4 | 8.4 ± 0.4 | S,G2M arrest | 7.2 ± 0.1 | S,G2M arrest | 1.2 ± 0.1^d | 15.8 ± 1.8 | 25 | 25 | – |
| CC1=C(CC(=O)O)c2cc(F)ccc2/C1=C\c1ccc([S+](C)[O-])cc1 (stereo not shown) [SUL, Sulindac] | −23.2% | 7.6 ± 0.3 | – | – | 6.6 ± 0.4^d | – | – | + (No effect <20% inhibition of surviving cell population) | 30 | 30% | −61.6 | 3.8 ± 0.2 | 3.8 ± 0.2^c | – | 13.9 ± 0.5 | G1arrest | 13.9 ± 0.8^c | 0.5 ± 0.3 | 70 | 70 | inhibition at 1 µM (C57COL (Apc [+/+]) cells; Mus musculus, 120 h, SUL 1 μM, day 5): 10.2%; inhibition at 10 µM (C57COL (Apc [+/+]) cells; Mus musculus, 120 h, SUL 10 μM, day 5): 15.4%; inhibition at 100 µM (C57COL (Apc [+/+]) cells; Mus musculus, 120 h, SUL 100 μM, day 5): 71.8%; Cell Population Doubling at Day 5 Post-Seeding (C57COL (Apc [+/+]) cells; SUL 1 μM): 3.5 ± 0.4; Cell Population Doubling at Day 5 Post-Seeding (C57COL (Apc [+/+]) cells; SUL 10 μM): 3.3 ± 0.7; Cell Population Doubling at Day 5 Post-Seeding (C57COL (Apc [+/+]) cells; SUL 100 μM): 1.1 ± 0.5; Cell Population Doubling at Day 5 Post-Seeding (Apc [+/−] 1638NCOL cells [1]; 1638NCOL (Apc [+/−]), SUL 1 μM): 4.8 ± 0.6; Cell Population Doubling at Day 5 Post-Seeding (Apc [+/−] 1638NCOL cells [1]; 1638NCOL (Apc [+/−]), SUL 10 μM): 4.4 ± 0.4; Cell Population Doubling at Day 5 Post-Seeding (Apc [+/−] 1638NCOL cells [1]; 1638NCOL (Apc [+/−]), SUL 100 μM): 2.3 ± 0.3; Cytostatic growth arrest response (decrease in cell population doubling) in Apc [+/−] cells as compared to Apc [+/+] cells (Apc [+/−] 1638NCOL cells [1]; 1638NCOL versus C57COL): 2-3 fold; inhibition at 1 µM (Apc [+/−] 1638NCOL cells [1]; Mus musculus, 120 h, 1638NCOL (Apc [+/−]), SUL 1 μM, day 5): 34.2%; inhibition at 10 µM (Apc [+/−] 1638NCOL cells [1]; Mus musculus, 120 h, 1638NCOL (Apc [+/−]), SUL 10 μM, day 5): 39.7%; inhibition at 100 µM (Apc [+/−] 1638NCOL cells [1]; Mus musculus, 120 h, 1638NCOL (Apc [+/−]), SUL 100 μM, day 5): 68.5% |
| CC/C(=C(\c1ccccc1)c1ccc(OCCN(C)C)cc1)c1ccccc1 [TAM, Tamoxifen] | −23.2% | 7.6 ± 0.4 | −28.3 | 7.1 ± 0.2 | 2.7 ± 0.9^d | S,G2M arrest | 1.8 ± 0.8^d | + (No effect <20% inhibition of surviving cell population) | 20 | 20-30% | – | – | – | S,G2M arrest | – | – | – | – | – | – | Growth arrest (%) (Apc [+/−] 1638NCOL cells [3]; 10 μM (Table 8)): 30%; Toxicity (Apc [+/−] 1638NCOL cells [3]; 100 μM): + |
